Data reported in patent publication EP4613269A1, “RIFAXIMIN FOR USE IN TREATING SARCOPENIA IN PATIENTS WITH LIVER DISEASE” (priority 2024, dated 2025).

What was measured:
[1] = Retrospective cohort study: skeletal muscle area (SMA) at L3 from serial abdominal CT scans; format: in vivo, human; settings: for Follow-up skeletal muscle area: Median (IQR) at second CT scan, rifaximin N = 63 (with lactulose), lactulose alone N = 79; for median change in SMA: between first and second abdominal CT scan (3-9 months apart), patients with cirrhosis and HE, rifaximin 550 mg twice daily orally with lactulose vs lactulose monotherapy
Description: (§1) This study is a single-centre retrospective cohort study of patients treated with lactulose or rifaximin with lactulose, under the care of the liver transplant service in Melbourne, Australia, between 2009 and 2022. The primary outcome measure was a change in muscle mass over time between the rifaximin versus non-rifaximin treated cohort. Secondary outcomes included. Clostridium difficile infection and mortality.
(§2) All adult patients (age >18 years) with cirrhosis and documented clinically apparent hepatic encephalopathy (HE) known to the Victorian liver transplant service were considered for analysis. Inclusion criteria required patients to have had serial abdominal CT scans at least 3 months and at most 9 months apart during their time on the liver transplant waitlist to allow for comparison of muscle mass over time. Rifaximin became widely available as a treatment of HE on the Pharmaceutical Benefits Scheme in Australia in January 2014. Therefore, patients on lactulose monotherapy (January 2009 to December 2013) were compared to those receiving rifaximin with lactulose (January 2014 to July 2022). Patients were orally administered 550 mg of rifaximin (alpha) twice daily. Lactulose treatment for HE was under standard conditions, i.e. lactulose administration in syrup form at a dose of 15 to 30 mL two to four times a day to aim for two semisoft stools per day. Patients otherwise received standard of care management of cirrhosis including nutritional advice from an experienced liver dietitian.
Muscle mass data was calculated from CT scans performed at two time-points in the patient journey to determine progress and change of outcomes. The first time-point for data collection, including for demographics and blood parameters, was time of first CT. The second time-point for data collection was collected between three to nine months following the first time point when the follow up CT was performed.
SMA was measured using the cross-sectional area of the abdominal muscles at the third lumbar vertebrae (L3) using CoreSlicer (^©2018), a web-based program for accurate measurement of body composition, verified for this purpose (Mullie & Afilalo "CoreSlicer: a web toolkit for analytic morphomics" BMC Med. Imaging (2019), 19(1): 15).
Statistical analysis was performed using R version 4.1.1. Subgroups were compared by χ^2 test for categorical variables and Student's t-test or Wilcoxon rank sum test for parametric and non-parametric continuous variables, respectively. Linear regression models (analysis of covariance) were used to assess the impact of clinical variables on muscle endpoints. […]
Averages were expressed as mean ± standard deviation for normally distributed variables, and as medians ± IQR for non-normally distributed variables.

[2] = Retrospective cohort study: clinical outcomes (transplant outcome, mortality, Clostridium difficile infection); format: in vivo, human; settings: for Transplant outcome: Died on list: died awaiting transplantation; for episodes of Clostridium difficile infection: during study follow-up; for Transplant outcome: Delisted / Transplant outcome: Rejected / Transplant outcome: Transplanted: liver transplant waitlist patients with cirrhosis and HE; for median time to death from listing: patients who died awaiting transplant; for Median time-to-transplant: transplanted patients
Description: as §1, §2
Included data comprised baseline demographics (age, gender, aetiology of liver disease, body mass index (BMI)); disease assessment at workup (Sodium Model of End-Stage Liver Disease (NaMELD)), Child-Pugh-Turcotte (CTP) score; sarcopenia assessment (skeletal muscle area (SMA, cm^2)) from single slice CT scan, sepsis (hospitalisation data for infective complications, episodes of spontaneous bacterial peritonitis); rifaximin complications (Clostridium difficile infections); and mortality and transplantation outcome data.
Patients were followed up until: end outcomes occurred; delisting from service; rejected prior to formal transplant workup; death prior to transplant; or liver transplantation.

Structure (SMILES) | Follow-up skeletal muscle area [1] | median change in SMA [1] | Transplant outcome: Died on list [2] | Transplant outcome: Died on list ([2]; listed as lactulose) | episodes of Clostridium difficile infection [2] | Transplant outcome: Delisted [2] | Transplant outcome: Rejected [2] | Transplant outcome: Transplanted [2] | median time to death from listing [2] [days] | Median time-to-transplant [2] [days]
OC[C@H]1O[C@@H](O[C@@H]2[C@@H](CO)OC(O)(CO)[C@H]2O)[C@H](O)[C@@H](O)[C@H]1O (mixture of isomers) [Lactulose alone, Lactulose] | 159 (137, 174) cm^2 | -6.9 cm^2 | 5 (6.5%) n (%) | 5 (6.5 %) n (%) | none | 15 (19%) n (%) | 0 (0%) n (%) | 57 (74%) n (%) | 282 | 312.5
CO[C@H]1/C=C/O[C@@]2(C)Oc3c(C)c(O)c4c(O)c(c5c(nc6cc(C)ccn65)c4c3C2=O)NC(=O)/C(C)=C\C=C\[C@H](C)[C@H](O)[C@@H](C)[C@@H](O)[C@@H](C)[C@H](OC(C)=O)[C@@H]1C [Rifaximin, 4-deoxy-4'-methylpyrido[1',2'-1,2]imidazo-[5,4-c] rifamycin SV] | 162 (134, 190) cm^2 | +0.74 cm^2 | 2 (3.4%) n (%) | – | one | 4 (6.9%) n (%) | 1 (1.7%) n (%) | 51 (88%) n (%) | 265.5 | 353
